Patent EP4635958A1, “PYRIMIDINE-CONTAINING POLYCYCLIC DERIVATIVE INHIBITOR, AND PREPARATION METHOD THEREFOR AND USE THEREOF” (Shanghai Hansoh Biomedical Co., Ltd., priority 2022, dated 2024)

Experiments:
KRAS G12D-SOS1 = biological target: T1, KRAS G12D-SOS1 (Homo sapiens, UniProt P01116, G12D); assay: Blocking of KRAS G12D-SOS1 protein binding (Cisbio KRAS-G12D/SOS1 Binding Assay Kit, time-resolved fluorescence)
T1 construct: purchased Cisbio 63ADK000CB17PEG
Text: • 1. Experimental objective: […] Experimental reagents and instruments The centrifuge (5810R) was purchased from Eppendorf; the pipette was purchased from Eppendorf or Rainin; and the microplate reader was purchased from BioTek (United States) with a model of SynergyH1 multifunctional microplate reader. KRAS-G12D/SOS1 Binding Assay Kit was purchased from Cisbio, with a catalog number of 63ADK000CB17PEG; GTP was purchased from Sigma, with a catalog number of G8877; 384-well plate was purchased from Perkin Elmer, with a catalog number of 6007299. The Diluent buffer in the kit was used to dilute the compound into 10× compound solution of different concentrations, and 2 uL was added to each well of the 384-well plate. Tag2-KRAS G12D protein and GTP were formulated into a mixed solution of 5×KRAS G12D-GTP protein using Diluent buffer, and Tag1-SOS1 protein was formulated into a 5×SOS1 protein solution using Diluent buffer. Each solution was added to the 384-well plate separately at 4 uL per well, and incubated at room temperature for 15 min. A mixed solution of 2× anti-Tag1-Tb^3+ and anti-Tag2-XL665 formulated using detection buffer was added to the 384-well plate at 10 µL per well, and incubated at 4°C in the dark for 3 h.

p-ERK in AsPC-1 cells = assay: Inhibition of p-ERK in AsPC-1 cells (LANCE Ultra phospho-ERK1/2 kit); format: cell-based; conditions: Homo sapiens, ASPC1, 2 h with compound, read-out: AsPC-1_pERK IC50
Method: 1. Experimental objective: The inhibition activity of the example compounds on the phosphorylated ERK level in KRAS G12D mutant cells AsPC-1 was determined. 2. Experimental instruments: • 2.1 Instruments: Microplate reader (BioTek Synergy H1); Pipette (Eppendorf & Rainin) • 2.2 Reagents: Phosphorylated ERK1/2 (T202-Y204) LANCE Ultra Cellular Detection Kit was purchased from PerkinElmer, with a catalog number of TRF4000M; DMEM was purchased from Gibco, with a catalog number of 11995065; FBS was purchased from Gibco, with a catalog number of 10091148; PBS was purchased from Gibco, with a catalog number of 10010023; trypsin was purchased from Gibco, with a catalog number of 25200056; cell culture plates were purchased from Corning Company, with a catalog number of 3610; White opaque OptiPlate™-384 plates were purchased from PerkinElmer, with a catalog number of 6007290. 3. Experimental method: When AsPC-1 cells were cultured to appropriate confluence, the AsPC-1 cells were collected, and the cell density was adjusted to 1 × 10^6/mL using complete culture medium. […] The plate was read using BioTek Synergy H1 and the signal values at the emission wavelengths of 620 nm and 665 nm were detected using a time-resolved fluorescence program. […]

[1] = rat, plasma
Text: The purpose of this experiment was to detect the stability of the example compounds in plasma of mouse, rat, dog and human.
Liquid chromatography-mass spectrometer, centrifuge, vortexer, pipette, continuous dispenser, 96-well plate, 50% methanol aqueous solution, acetonitrile solution containing internal standard, blank matrix (plasma of rat, dog, or human), Propantheline (propantheline bromide), Mevinolin (lovastatin), and test compound.
After whole blood was collected from animals or humans, it was placed in a test tube containing an anticoagulant and centrifuged at 3500 rpm for 10 min to collect the upper pale yellow plasma.
The compound was weighed and the stock solution was formulated with DMSO and the working solution was formulated with 100 mM phosphate buffer.
2.36 mg of propantheline bromide was weighed and diluted with 1 mL of DMSO into a 10 mM stock solution; 10 µL of 10 mM stock solution was pipetted into 1 mL of 100 mM phosphate buffer to achieve a final concentration of 100 µM.
4.05 mg of lovastatin was weighed and diluted with 1 mL of DMSO into a 10 mM stock solution; 10 µL of 10 mM stock solution was pipetted into 1 mL of 100 mM phosphate buffer to achieve a final concentration of 100 µM.
• 1) In a 96-well plate, 285 µL of plasma and 15 µL of 10 µM compound (test compound) were added in sequence and incubated at 37°C. • 2) 40 µL was taken at 0, 15, 30, 60, 90, and 120 min (the sampling point can be fine-tuned) and 160 µL of acetonitrile stop solution containing internal standard was add. • 3) After centrifugation (3500 rpm, 10 min), 50 µL of supernatant was taken, and 50 µL of DDH2O added for dilution and then the obtained mixture was injected into LC-MS/MS.
• Instruments: Shimadzu LC-20 AD • Chromatographic column: Phenomenex Gemiu ® C18 (50*4.6 mm, 5 µm particle size); • mobile phase: A: Acetonitrile, B: 0.1% formic acid solution 0-8 min: 5% A→95% A, 2.0-2.1 min: 90%A→5% A; Flow rate: 0.8 mL/min; Run time: 5.0 min; Injection volume: 5 µL.
• Instrument: API4000 liquid chromatography-mass spectrometer, AB Company, USA; • the ion source was electrospray ionization source (ESI); • drying gas (N2) temperature was 500°C; • electrospray voltage was 5500V; • the detection method was positive ion detection; • the scanning method was selected reaction monitoring (MRM); • the scanning time was 0.1s.

T1 sequence (P01116 1-188 isoform P01116-2 G12D): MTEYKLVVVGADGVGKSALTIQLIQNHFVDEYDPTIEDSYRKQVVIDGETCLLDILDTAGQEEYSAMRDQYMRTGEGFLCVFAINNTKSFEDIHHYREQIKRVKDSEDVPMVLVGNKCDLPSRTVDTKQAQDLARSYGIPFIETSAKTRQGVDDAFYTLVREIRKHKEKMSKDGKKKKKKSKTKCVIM

Row | SMILES | IC50 (KRAS G12D-SOS1) [nM] | IC50 (p-ERK in AsPC-1 cells) [nM] | Remaining rate (%) 0 min ([1]; 0 h) [%] | Remaining rate (%) 15 min ([1]; 0.25 h) [%] | Remaining rate (%) 30 min ([1]; 0.5 h) [%] | Remaining rate (%) 60 min ([1]; 1 h) [%] | Remaining rate (%) 120 min ([1]; 2 h) [%]
1 | C#Cc1c(F)ccc2cc(O)cc(-c3nc4c5c(nc(OCC6(CN7CCC(=C(F)F)CC7)CC6)nc5c3F)N3C[C@H]5CC[C@H](N5)[C@H]3CO4)c12 [Example 1-1, 4-((5aS,6S,9R)-12-((1-((4-(difluoromethylene)piperidin-1-yl)methyl)cyclopropyl)methoxy)-1-fluoro-5a,6,7,8,9,10-hexahydro-5H-4-oxa-3,10a,11,13,14-pentaaza-6,9-methylenenaphtho[1,8-ab]heptalene-2-yl)-5-ethynyl-6-fluoronaphthalen-2-ol] | 1.8 | 1 |  |  |  |  | 
2 | [2H]C([2H])([2H])[C@@H]1Oc2nc(-c3cc(O)cc4ccc(F)c(C#C)c34)c(F)c3nc(OCC4(CN5CCC(=C(F)F)CC5)CC4)nc(c23)N2C[C@H]3CC[C@H](N3)[C@@H]12 [Example 161, 4-((5S,5aS,6S,9R)-12-((1-((4-(difluoromethylene)piperidin-1-yl)methyl)cyclopropyl)methoxy)-1-fluoro-5-(methyl-d3)-5a,6,7,8,9,10-hexahydro-5H-4-oxa-3,10a,11,13,14-pentaaza-6,9-methylnaphtho[1,8-ab]hept-2-yl)-5-ethynyl-6-fluoronaphthalen-2-ol] |  |  | 100.00 | 94.50 | 98.84 | 98.63 | 95.03
